These are literature values, as cited in US20220000967A1, “SYNTHETIC PEPTIDES INDUCING IMMUNOGENIC CELL DEATH” (SORBONNE UNIVERSITE, priority 2018, published 2022).

The test system of this series is murine B78 melanoma cells. To be noted: melphalan killed B78 cells injected, re-challenged 10 days later with B78 viable cells; cited from earlier work.

Molecules are shown by their SMILES.

With `N[C@@H](Cc1ccc(N(CCCl)CCCl)cc1)C(=O)O` [melphalan], the mice without tumor is listed as 40%.
